In patent publication US11952330B2, “Antibiotic ammonium compounds and methods for the treatment of bacterial infections” (priority 2019, dated 2024):

Columns and labels:
S. aureus = experiment: MIC by broth dilution, S. aureus; assay type: cell-based; settings: Staphylococcus aureus; Mueller-Hinton broth, overnight 37° C.; Table 1; read-out: MIC (μg/mL) S. aureus
Protocol: (§1) The antibacterial efficacy of the ammonium compounds was assessed. Minimum inhibitory concentrations (MICs) were determined by broth dilution method. Dilutions of each compound, ranging from 1 μg/mL to 256 μg/mL (final concentrations) were prepared in Mueller-Hinton broth. Compound dilutions were added to wells of a 96-well plate, with the concentration of the compound increasing 2-fold by row. Each well contained 5×10^5 CFU/ml of target bacterium in a total volume of 100 μl. Plates were incubated overnight at 37° C. The following day, plates were evaluated for a visual change in growth to determine the MIC. The concentration value corresponding to the first row that no longer had visible bacterial growth, as evaluated by turbidity in the wells, was recorded as the MIC. MIC values were representative of at least biological duplicates, each made up of technical triplicates. The antibacterial efficacy of ammonium compounds in the presence of human plasma was assessed. Minimum inhibitory concentrations (MICs) were determined by broth dilution method. Dilutions of each compound, ranging from 1 μg/mL to 256 μg/mL (final concentrations) were prepared in Mueller-Hinton broth. For the plasma containing samples, compound dilutions were made in Mueller-Hinton broth and supplemented with 5% (final %) human plasma (esterases). Compound dilutions were added to wells of a 96-well plate, with the concentration of the compound increasing 2-fold by row. Each well contained 5×10^5 CFU/mL of target bacterium in a total volume of 100 μL. Plates were incubated overnight at 37° C. The following day, plates were evaluated for a visual change in growth to determine the MIC. The concentration value corresponding to the first row that no longer had visible bacterial growth, as evaluated by turbidity in the wells, was recorded as the MIC. MIC values were representative of at least biological duplicates, each made up of technical triplicates.

A. baumannii = experiment: MIC by broth dilution, A. baumannii; assay type: cell-based; settings: Acinetobacter baumannii; Mueller-Hinton broth, overnight 37° C.; Table 1; read-out: MIC (μg/mL) A. baumannii
Protocol: as §1

SMILES	MIC (S. aureus)	MIC (A. baumannii)
CCCCCCCCOc1ccccc1C(=O)Nc1ccc(C(=O)OCC[N+](CC)(CC)CC2CCCCC2)cc1.[Br-] [Compound 62, N-(Cyclohexylmethyl)-N,N-diethyl-2-((4-(2-(octyloxy)benzamido)benzoyl)oxy)-ethan-1-aminium bromide]	< 3 µg/mL	3 to 30 µg/mL
CCCCCCCCOc1ccccc1C(=O)Nc1ccc(C(=O)OCC[N+](CC)(CC)Cc2ccc([N+](=O)[O-])cc2)cc1.[Br-] [Compound 39, N,N-Diethyl-N-(4-nitrobenzyl)-2-((4-(2-(octyloxy)benzamido)benzoyl)oxy)ethan-1-aminium bromide]	3 to 30 µg/mL	> 30 µg/mL
CCCCCCCCOc1ccccc1C(=O)Nc1ccc(C(=O)OCC[N+](CC)(CC)Cc2cccc(F)c2F)cc1.[Br-] [Compound 43, N,N-Diethyl-N-(2,3-difluorobenzyl)-2-((4-(2-(octyloxy)benzamido)benzoyl)oxy)-ethan-1-aminium bromide]	< 3 µg/mL	3 to 30 µg/mL
CCCCCCOc1cc(F)ccc1C(=O)Nc1ccc(S(=O)(=O)NCC[N+](CC)(CC)CCCCC)cc1.[Br-] [Compound 94, N,N-Diethyl-N-(2-((4-(4-fluoro-2-(hexyloxy)benzamido)phenyl)sulfonamido)-ethyl)pentan-1-aminium bromide]	3 to 30 µg/mL	3 to 30 µg/mL
CCCCCCCCOc1cccc(C(=O)Nc2ccc(C(=O)OCC[N+](C)(CC)CC)cc2)c1.[Br-] [Compound 32, N,N-Diethyl-N-methyl-2-((4-(3-(octyloxy)benzamido)benzoyl)oxy)ethan-1-aminium bromide]	3 to 30 µg/mL	> 30 µg/mL
CCCCCCCCOc1ccccc1C(=O)Nc1ccc(C(=O)OC2CC[N+](C)(CC)CC2)cc1.[Br-] (stereo not shown) [Compound 53, 1-Ethyl-1-methyl-4-((4-(2-(octyloxy)benzamido)benzoyl)oxy)piperidin-1-ium bromide]	3 to 30 µg/mL	> 30 µg/mL
CCCCCCCCOc1ccccc1C(=O)Nc1ccc(S(=O)(=O)NCC[N+](C)(CC)CC)cc1.[Br-] [Compound 78, N,N-Diethyl-N-methyl-2-((4-(2-(octyloxy)benzamido)phenyl)sulfonamido)ethan-1-aminium bromide]	3 to 30 µg/mL	3 to 30 µg/mL
CCCCCCCCOc1ccc(C(=O)Nc2ccc(C(=O)OCC[N+](C)(CC)CC)cc2)cc1.[Br-] [Compound 31, N,N-Diethyl-N-methyl-2-((4-(4-(octyloxy)benzamido)benzoyl)oxy)ethan-1-aminium bromide]	> 30 µg/mL	> 30 µg/mL
CCCCCCCOc1ccccc1C(=O)Nc1ccc(S(=O)(=O)NCC[N+](CC)(CC)CCC)cc1.[Br-] [Compound 83, N,N-Diethyl-N-(2-((4-(2-(heptyloxy)benzamido)phenyl)sulfonamido)ethyl)propan-1-aminium bromide]	3 to 30 µg/mL	> 30 µg/mL
CCCCCCCCOc1cccc(C(=O)Nc2ccc(C(=O)OCC[N+](C)(CC)CC)cc2)c1OCCCCCCCC.[Br-] [Compound 14, 2-((4-(2,3-Bis(octyloxy)benzamido)benzoyl)oxy)-N,N-diethyl-N-methylethan-1-aminium bromide]	> 30 µg/mL	> 30 µg/mL
CCCCCCCCOc1ccccc1C(=O)Nc1ccc(C(=O)OCC[N+](CC)(CC)Cc2cccc(F)c2)cc1.[Br-] [Compound 42, N,N-Diethyl-N-(3-fluorobenzyl)-2-((4-(2-(octyloxy)benzamido)benzoyl)oxy)ethan-1-aminium bromide]	< 3 µg/mL	3 to 30 µg/mL
CCCCCCCCOc1ccccc1C(=O)Nc1ccccc1C(=O)OCC[N+](C)(CC)CC.[Br-] [Compound 13, N,N-Diethyl-N-methyl-2-((2-(2-(octyloxy)benzamido)benzoyl)oxy)ethan-1-aminium bromide]	3 to 30 µg/mL	> 30 µg/mL
CC[N+](C)(CC)CCOC(=O)c1ccc(NC(=O)c2ccccc2OC2CCC(C)CC2)cc1.[Br-] (stereo not shown) [Compound 98, N,N-Diethyl-N-methyl-2-((4-(2-(((1s,4s)-4-methylcyclohexyl)oxy)benzamido)-benzoyl)oxy)ethan-1-aminium bromide]	> 30 µg/mL	> 30 µg/mL
CCCCCCCCOc1ccccc1C(=O)Nc1ccc(C(=O)OCC[N+](CC)(CC)Cc2cccc(OC)c2)cc1.[Br-] [Compound 50, N,N-Diethyl-N-(3-methoxybenzyl)-2-((4-(2-(octyloxy)benzamido)benzoyl)oxy)-ethan-1-aminium bromide]	< 3 µg/mL	3 to 30 µg/mL
CCCCOc1ccccc1C(=O)Nc1ccc(C(=O)OCC[N+](C)(CC)CC)cc1.[Br-] [Compound 19, 2-((4-(2-Butoxybenzamido)benzoyl)oxy)-N,N-diethyl-N-methylethan-1-aminium bromide]	> 30 µg/mL	> 30 µg/mL
CCCCCOc1ccccc1C(=O)Nc1ccc(C(=O)OCC[N+](CC)(CC)CCC)cc1.[Br-] [Compound 64, N,N-Diethyl-N-(2-((4-(2-(pentyloxy)benzamido)benzoyl)oxy)ethyl)propan-1-aminium bromide]	3 to 30 µg/mL	> 30 µg/mL
CCCCCCCOc1ccccc1C(=O)Nc1ccc(S(=O)(=O)NCC[N+](C)(CC)CC)cc1.[Br-] [Compound 79, N,N-Diethyl-2-((4-(2-(heptyloxy)benzamido)phenyl)sulfonamido)-N-methylethan-1-aminium bromide]	3 to 30 µg/mL	> 30 µg/mL
CCCCCCCCOc1ccccc1C(=O)Nc1ccc(C(=O)OCC[N+](CC)(CC)CCCCCCCC)cc1.[Br-] [Compound 38, N,N-Diethyl-N-(2-((4-(2-(octyloxy)benzamido)benzoyl)oxy)ethyl)octan-1-aminium bromide]	< 3 µg/mL	> 30 µg/mL

Further lines, results first:

MIC (S. aureus)	MIC (A. baumannii)	SMILES
< 3 µg/mL	3 to 30 µg/mL	CCCCCCCCOc1ccccc1C(=O)Nc1ccc(C(=O)OCC[N+](CC)(CC)CCCCCCC)cc1.[Br-] [Compound 37, N,N-Diethyl-N-(2-((4-(2-(octyloxy)benzamido)benzoyl)oxy)ethyl)heptan-1-aminium bromide]
> 30 µg/mL	> 30 µg/mL	CCCCCOc1ccccc1C(=O)Nc1ccc(C(=O)OCC[N+](C)(CC)CC)cc1.[Br-] [Compound 20, N,N-Diethyl-N-methyl-2-((4-(2-(pentyloxy)benzamido)benzoyl)oxy)ethan-1-aminium bromide]
3 to 30 µg/mL	3 to 30 µg/mL	CCCCCCCCOc1ccccc1C(=O)Nc1ccc(C(=O)OCC[N+](C)(CC)CC)cc1.[Br-] [Compound 10, N,N-diethyl-N-methyl-2-((4-(2-(octyloxy)benzamido)benzoyl)oxy)ethan-1-aminium bromide, reference compound]
3 to 30 µg/mL	3 to 30 µg/mL	CCCCCCCCCOc1ccccc1C(=O)Nc1ccc(C(=O)OCC[N+](C)(CC)CC)cc1.[Br-] [Compound 23, N,N-Diethyl-N-methyl-2-((4-(2-(nonyloxy)benzamido)benzoyl)oxy)ethan-1-aminium bromide]
3 to 30 µg/mL	> 30 µg/mL	CCCCCCOc1ccccc1C(=O)Nc1ccc(C(=O)OCC[N+](CC)(CC)CCC)cc1.[Br-] [Compound 66, N,N-Diethyl-N-(2-((4-(2-(hexyloxy)benzamido)benzoyl)oxy)ethyl)propan-1-aminium bromide]
3 to 30 µg/mL	> 30 µg/mL	CCCCCCCCOc1ccccc1C(=O)Nc1ccc(C(=O)OCCCC[N+](C)(C)C)cc1.[I-] [Compound 46, N,N,N-Trimethyl-4-((4-(2-(octyloxy)benzamido)benzoyl)oxy)butan-1-aminium iodide]
3 to 30 µg/mL	> 30 µg/mL	CCCCCCCCOc1cccc(F)c1C(=O)Nc1ccc(C(=O)OCC[N+](C)(CC)CC)cc1.[Br-] [Compound 88, N,N-Diethyl-2-((4-(2-fluoro-6-(octyloxy)benzamido)benzoyl)oxy)-N-methylethan-1-aminium bromide]
< 3 µg/mL	3 to 30 µg/mL	CCCCCCCCOc1ccccc1C(=O)Nc1ccc(C(=O)OCC[N+](CC)(CC)CCC(C)C)cc1.[Br-] [Compound 63, N,N-Diethyl-3-methyl-N-(2-((4-(2-(octyloxy)benzamido)benzoyl)oxy)ethyl)butan-1-aminium bromide]
< 3 µg/mL	3 to 30 µg/mL	CCCCCCCCOc1ccccc1C(=O)Nc1ccc(C(=O)OCC[N+](CC)(CC)CCC)cc1.[Br-] [Compound 33, N,N-Diethyl-N-(2-((4-(2-(octyloxy)benzamido)benzoyl)oxy)ethyl)propan-1-aminium bromide]
3 to 30 µg/mL	> 30 µg/mL	CCCCCCOc1ccccc1C(=O)Nc1ccc(C(=O)OCC[N+](CC)(CC)CCCC)cc1.[Br-] [Compound 67, N,N-Diethyl-N-(2-((4-(2-(hexyloxy)benzamido)benzoyl)oxy)ethyl)butan-1-aminium bromide]
< 3 µg/mL	3 to 30 µg/mL	CCCCCCCCOc1ccccc1C(=O)Nc1ccc(C(=O)OCC[N+](CC)(CC)CCCCCC)cc1.[Br-] [Compound 36, N,N-Diethyl-N-(2-((4-(2-(octyloxy)benzamido)benzoyl)oxy)ethyl)hexan-1-aminium bromide]
